From patent US8202860B2, “Methods and compositions for treating primary and secondary tumors of the central nervous system (CNS)” (Ed. Geistlich Soehne AG fuer Chemische Industrie, priority 1999, dated 2012)
Entries after “also recorded” stand apart in the source; their conditions may differ.

Key:
[1] = tested on: glial (C6) tumor cell line; assay: growth inhibition of glial tumor cell line in cell culture; assay type: cell-based, rat
Method: (§1) For the latter cell line, however, the experiments are not complete as yet. […] The effect was concentration-dependent. […] The tumor cells were inhibited selectively beginning after 30 minutes. Following 1 to 3 hours about 90% of the tumor cells were inhibited. For the cell culture, cells were used in RPM1 1640 medium and plated in Falcon flasks.

[2] = tested on: neuronal (HT22) tumor cell line; assay: growth inhibition of neuronal tumor cell line in cell culture; assay type: cell-based, mouse
Method: as §1

[3] = tested on: CNS tumor cell lines (HT22, C6, U373); assay: inhibition of CNS tumor cells in culture (lines reported together), cytological changes recorded over time; assay type: cell-based; details: for time after which inhibition of tumor cells started: Results section (HT22, C6)
[4] = tested on: mixed neuronal and glial (U373) tumor cell line; assay: growth inhibition of mixed neuronal and glial tumor cell line in cell culture; assay type: cell-based, human; details: experiments are not complete as yet
Method: as §1

[5] = tested on: glioblastoma multiform-tumor cells; assay: tissue-culture of glioblastoma multiform tumor cells
[6] = cited from earlier work
[7] = tested on: primary CNS-cells (brain cells of rat fetuses); assay: effect on primary CNS cells in cell culture; assay type: cell-based
[8] = following 1 to 3 hours, Example 1
[9] = following about 1 to 2 hours, Results section

SMILES	direct inhibition of growth of tumor cell line [1]	direct inhibition of growth of tumor cell line [2]	time after which inhibition of tumor cells started [3] [min]	tumor cells inhibited [3, 8]	tumor cells inhibited [3, 9] [%]	direct inhibition of growth of tumor cell line [4]	concentration that inhibits or kills tumor cells in tissue-culture [5] [mg/mL]	water solubility [6]	cytological effect on primary CNS-cells ([7]; following 48 hours)	effect on CNS nerve cells, including stem cells of embryo meningeal cells ([7]; following administration of Taurolidine/Taurultam solutions)	growth inhibition of normal/primary central nervous system cells (selectivity versus tumor cells) ([7]; primary cell lines of fetal rat central nervous system, compared to tumor cells)	effectiveness relative to Taurolidine [3]	time after which selective inhibition of tumor cells began ([3]; Example 1) [min]
O=S1(=O)CCN(CN2CCS(=O)(=O)NC2)CN1 [Taurolidine, Bis-(1,1-dioxoperhydro-1,2,4-thiadiazinyl-4)methane]	inhibit directly the growth	inhibit directly the growth	10	about 90%	90	inhibit directly the growth	0.1 to 4	up to 2%					
O=S1(=O)CCNCN1 [Taurultam]	inhibit directly the growth	inhibit directly the growth	10	about 90%	90	inhibit directly the growth			no significant cytological effect	remain unaffected	required significantly higher concentrations and a significantly longer contact time for inhibition; also recorded: not significantly inhibited	almost twice as effective as Taurolidine	30
